Test systems include CCRF-CEM leukemia; HCT-15 colon; HT29 colon; MCF7 breast; MDA-MB-435; SF-539 CNS; SK-MEL-2 melanoma; SK-MEL-28 melanoma; SNB-75 CNS; T-47D breast.
What all share (assay): NCI anticancer screen, dose series, 48 h

Where “and” joins values, the source holds several entries; their conditions need not be identical. Equal entries are not always repeated.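 96-well plates; 48 h exposure; 5 concentrations. Endpoints by linear interpolation between flanking doses. Not reached: highest tested concentration assigned. At the GI50, growth is halved. The concentration for full growth arrest is given as TGI.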

Consider `CCCCNP1(NCCCC)=NP(NCCCC)(NCCCC)=NP(NCCCC)(NCCCC)=NP(NCCCC)(NCCCC)=N1`, for which the GI50 in the assay with CCRF-CEM leukemia was 0.313 µM; in the assay with HCT-15 colon it was 21.2 µM; with HT29 colon, 0.213 µM; with MCF7 breast, 0.356 µM; with MDA-MB-435, 0.931 µM; in the assay with SF-539 CNS it was 2.89 µM. Besides, the GI50 is 0.922 µM in the assay with SK-MEL-2 melanoma, 2.64 µM in the assay with SK-MEL-28 melanoma, 3.13 µM in the assay with SNB-75 CNS and 0.26 µM in the assay on T-47D breast. For the same compound, the TGI in the assay on CCRF-CEM leukemia worked out at 12.3 µM; in the assay on HCT-15 colon, 99.5 µM; in the assay with HT29 colon, 17.7 µM; in the assay on MCF7 breast, 3.52 µM; in the assay with MDA-MB-435 it was 6.51 µM; in the assay with SF-539 CNS it was 8.55 µM. The TGI is 3.51 µM in the assay on SK-MEL-2 melanoma, 8.68 µM in the assay on SK-MEL-28 melanoma, 15.8 µM in the assay with SNB-75 CNS and 3.07 µM with T-47D breast.

As for `CN(C)c1ccc(/C=N/n2c(CCCCc3n[nH]c(=S)n3/N=C/c3ccc(N(C)C)cc3)n[nH]c2=S)cc1`, the GI50 in the assay with CCRF-CEM leukemia, in the assay with HCT-15 colon, with HT29 colon, in the assay with MCF7 breast, in the assay with MDA-MB-435 and with SF-539 CNS was > 100 µM each time. In addition, the GI50 was > 100 µM with SK-MEL-2 melanoma, > 100 µM in the assay with SK-MEL-28 melanoma, 30.2 µM in the assay with SNB-75 CNS and 0.022 µM in the assay with T-47D breast. The TGI in the assay on CCRF-CEM leukemia, with HCT-15 colon, in the assay with HT29 colon, in the assay on MCF7 breast, with MDA-MB-435 and with SF-539 CNS was > 100 µM each time. Also, the TGI with SK-MEL-2 melanoma was > 100 µM; with SK-MEL-28 melanoma, > 100 µM; in the assay on SNB-75 CNS, > 100 µM; in the assay on T-47D breast, 17.3 µM.

On to `C#Cc1cccc(Nc2ncnc3ccc(-c4cnc(N)nc4)cc23)c1`, for which the GI50 with CCRF-CEM leukemia is 2.6 µM; in the assay with HCT-15 colon it was 2.55 µM; in the assay with HT29 colon it was 2.36 µM; with MCF7 breast it was 1.8 µM; in the assay on MDA-MB-435, 3.58 µM; in the assay with SF-539 CNS it was 2.81 µM. The GI50 is 2.11 µM in the assay with SK-MEL-2 melanoma, 3.2 µM in the assay with SK-MEL-28 melanoma, 0.643 µM in the assay on SNB-75 CNS and 0.664 µM in the assay on T-47D breast. In addition, the TGI in the assay with CCRF-CEM leukemia was > 100 µM; in the assay on HCT-15 colon, 13.2 µM; in the assay on HT29 colon, 14.6 µM; in the assay with MCF7 breast it was 12.2 µM; in the assay with MDA-MB-435 it was 15.6 µM; in the assay on SF-539 CNS it was 11.9 µM. The TGI in the assay on SK-MEL-2 melanoma was 5.72 µM; in the assay with SK-MEL-28 melanoma, 16 µM; in the assay on SNB-75 CNS it was 3.96 µM; in the assay with T-47D breast, 4.62 µM.

With `CC[C@H](C)[C@H](NC(=O)[C@H]1CCCCN1C)C(=O)N(C)[C@H](C[C@@H](OC(C)=O)c1nc(C(=O)NC23C4C5C2C2C3C4C52C(=O)OC)cs1)C(C)C` (some centres undefined), the GI50 with CCRF-CEM leukemia was 0.0027 µM and 0.0025 µM; with HCT-15 colon it was 0.00763 µM and 0.00302 µM; in the assay with HT29 colon it was 0.00114 µM and 0.0025 µM; with MCF7 breast it was 0.000557 µM and 0.0025 µM; in the assay with MDA-MB-435 it was 0.000349 µM and < 0.0025 µM; with SF-539 CNS, 0.00115 µM and 0.0025 µM. In addition, the GI50 was 0.00185 µM and 0.0025 µM with SK-MEL-2 melanoma; 3.12 µM in the assay with SK-MEL-28 melanoma; 0.00125 µM and 0.0025 µM in the assay on SNB-75 CNS; 0.00275 µM in the assay on T-47D breast. The TGI is 3.33 µM in the assay on CCRF-CEM leukemia; > 25 µM in the assay on HCT-15 colon; 0.0612 µM and 0.0493 µM in the assay on HT29 colon; > 25 µM in the assay on MCF7 breast; 0.00278 µM and < 0.0025 µM with MDA-MB-435; 0.0114 µM and 0.00941 µM with SF-539 CNS. Also, the TGI was 0.00452 µM in the assay on SK-MEL-2 melanoma, > 25 µM with SK-MEL-28 melanoma and > 25 µM in the assay on SNB-75 CNS.

Take `O=C(C(=O)c1cccnc1)c1cccnc1`: the GI50 in the assay with CCRF-CEM leukemia, with HCT-15 colon, in the assay with HT29 colon, in the assay on MCF7 breast, in the assay with MDA-MB-435 and in the assay on SF-539 CNS was > 100 µM in each case. The GI50 in the assay with SK-MEL-2 melanoma, with SK-MEL-28 melanoma, with SNB-75 CNS and in the assay with T-47D breast was > 100 µM each time. Further, the TGI in the assay on CCRF-CEM leukemia, in the assay with HCT-15 colon, with HT29 colon, in the assay on MCF7 breast, in the assay on MDA-MB-435 and in the assay on SF-539 CNS was > 100 µM in each case. Also, the TGI in the assay with SK-MEL-2 melanoma, in the assay on SK-MEL-28 melanoma, in the assay on SNB-75 CNS and with T-47D breast was > 100 µM in each case.

For `O=c1[nH][nH]c(=O)c2c(O)c(-c3ccccc3)ncc12`, the GI50 in the assay on CCRF-CEM leukemia is 35.2 µM and 55.1 µM; with HCT-15 colon, 57.5 µM and 185 µM; in the assay on HT29 colon, 38.4 µM and 177 µM; in the assay with MCF7 breast, 47 µM and 199 µM; in the assay on MDA-MB-435 it was 44.1 µM and 205 µM; in the assay with SF-539 CNS, 32.6 µM. Also, the GI50 in the assay on SK-MEL-2 melanoma is 26 µM and 79.1 µM; with SK-MEL-28 melanoma, 31.9 µM and 40.4 µM; with SNB-75 CNS, 35.4 µM and 37.6 µM; in the assay on T-47D breast, 27.6 µM and 60.5 µM. Further, the TGI is 894 µM in the assay with CCRF-CEM leukemia; > 1000 µM with HCT-15 colon; 674 µM in the assay on HT29 colon; > 1000 µM with MCF7 breast; > 1000 µM in the assay with MDA-MB-435; 95.1 µM with SF-539 CNS. Also, the TGI in the assay on SK-MEL-2 melanoma is 67.3 µM and 373 µM; with SK-MEL-28 melanoma, > 1000 µM; in the assay on SNB-75 CNS it was 353 µM; in the assay on T-47D breast it was 95.5 µM and 843 µM.

Take `Cc1cnc(-c2ccc(-c3ccc(NC(=O)Nc4cccc(C(F)(F)F)c4)cc3F)c3c2C(=O)NC3)[nH]1`: the GI50 is 1.31 µM in the assay with CCRF-CEM leukemia; 6.19 µM in the assay with HCT-15 colon; 0.853 µM with HT29 colon; 2.04 µM in the assay on MCF7 breast; 12.6 µM in the assay on MDA-MB-435; 0.251 µM in the assay with SF-539 CNS. Moreover, the GI50 with SK-MEL-2 melanoma is 14.9 µM; in the assay with SK-MEL-28 melanoma it was 11.5 µM; in the assay on SNB-75 CNS, 1.29 µM; in the assay with T-47D breast it was 12.7 µM. The TGI with CCRF-CEM leukemia was 18.7 µM; in the assay on HCT-15 colon, 33.6 µM; with HT29 colon it was > 44.7 µM; in the assay on MCF7 breast, 25.3 µM; in the assay on MDA-MB-435, > 47.5 µM; in the assay with SF-539 CNS, 22.7 µM. Besides, the TGI with SK-MEL-2 melanoma came to 36.8 µM; with SK-MEL-28 melanoma it was 37.7 µM; in the assay with SNB-75 CNS, 25.5 µM; in the assay on T-47D breast, 33.5 µM.

The record behind these values is PubChem BioAssay (NCI).
